Experimental findings from patent publication US11981658B2, “Substituted aminopyridine compounds as EGFR inhibitors” (YUHAN CORPORATION, priority 2021, dated 2024) are described below.

In experiment [1] the target is EGFR Del19/T790M/C797S (Homo sapiens, UniProt P00533, C797S/DEL746-750/T790M). Nature of the experiment: Biochemical EGFR kinase inhibition assay (Lance Ultra TR-FRET), triple mutant del19/T790M/C797S. The method in brief: (§1)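 In this biochemical assay, phosphorylation after a one-hour room-temperature reaction was detected with europium-labelled anti-phosphopeptide antibody at 2 nM final concentration.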
For orientation: TR-FRET usually uses a lanthanide donor and a delayed reading to cut background.

For experiment [2], the target named is EGFR L858R/T790M/C797S (Homo sapiens, UniProt P00533, C797S/L858R/T790M). Nature of the experiment: Biochemical EGFR kinase inhibition assay (Lance Ultra TR-FRET), triple mutant L858R/T790M/C797S. A digest of the protocol:
as §1

Experiment [3] deals with EGFR Del19/C797S (Homo sapiens, UniProt P00533, C797S/DEL746-750). Kind of experiment: Biochemical EGFR kinase inhibition assay (Lance Ultra TR-FRET), double mutant del19/C797S. A digest of the protocol:
as §1

For experiment [4], the target named is EGFR L858R/C797S (Homo sapiens, UniProt P00533, C797S/L858R). Nature of the experiment: Biochemical EGFR kinase inhibition assay (Lance Ultra TR-FRET), double mutant L858R/C797S. The method in brief: as §1
For experiment [5], the target named is EGFR wildtype (WT) (Homo sapiens, UniProt P00533). Nature of the experiment: Biochemical EGFR kinase inhibition assay (Lance Ultra TR-FRET), wildtype. The method in brief:
as §1

[6] abbreviates: ATP at Km, read-out: IC50 Del19/T790M/C797S (nM), Km ATP.
Where [7] appears, read: IC50 Del19/T790M/C797S (nM), 100 μM ATP.
Where [8] appears, read: ATP at Km, read-out: IC50 L858R/T790M/C797S (nM), Km ATP.
[9] abbreviates: IC50 L858R/T790M/C797S (nM), 100 μM ATP.
[10] abbreviates: ATP at Km, read-out: IC50 Del19/C797S (nM), Km ATP.
Where [11] appears, read: IC50 Del19/C797S (nM), 100 μM ATP.
[12] abbreviates: ATP at Km, read-out: IC50 L858R/C797S (nM), Km ATP.
The mark [13] stands for this setting: IC50 L858R/C797S (nM), 100 μM ATP.
Setting [14] is: ATP at Km, read-out: IC50 WT (nM), Km ATP.
[15] abbreviates: Km ATP, read-out: IC50 Del19/T790M/C797S (nM), Km ATP.
Where [16] appears, read: Km ATP, read-out: IC50 L858R/T790M/C797S (nM), Km ATP.
Where [17] appears, read: Km ATP, read-out: IC50 Del19/C797S (nM), Km ATP.
Where [18] appears, read: Km ATP, read-out: IC50 L858R/C797S (nM), Km ATP.
The mark [19] stands for this setting: Km ATP, read-out: IC50 WT (nM), Km ATP.
[20] abbreviates: Km ATP, read-out: IC50 Del19/T790M/C797S (nM) Km ATP.
Where [21] appears, read: Km ATP, read-out: IC50 L858R/T790M/C797S (nM) Km ATP.
Where [22] appears, read: Km ATP, read-out: IC50 Del19/C797S (nM) Km ATP.
[23] abbreviates: Km ATP, read-out: IC50 L858R/C797S (nM) Km ATP.
Where [24] appears, read: Km ATP, read-out: IC50 WT (nM) Km ATP.

The structures appear in SMILES notation. Where two headings read alike, the source gives them in different places. Where only a bound is given, the exact number is not on record here.

EGFR L858R/T790M/C797S, sequence (P00533 25-1210 T790M/C797S/L858R): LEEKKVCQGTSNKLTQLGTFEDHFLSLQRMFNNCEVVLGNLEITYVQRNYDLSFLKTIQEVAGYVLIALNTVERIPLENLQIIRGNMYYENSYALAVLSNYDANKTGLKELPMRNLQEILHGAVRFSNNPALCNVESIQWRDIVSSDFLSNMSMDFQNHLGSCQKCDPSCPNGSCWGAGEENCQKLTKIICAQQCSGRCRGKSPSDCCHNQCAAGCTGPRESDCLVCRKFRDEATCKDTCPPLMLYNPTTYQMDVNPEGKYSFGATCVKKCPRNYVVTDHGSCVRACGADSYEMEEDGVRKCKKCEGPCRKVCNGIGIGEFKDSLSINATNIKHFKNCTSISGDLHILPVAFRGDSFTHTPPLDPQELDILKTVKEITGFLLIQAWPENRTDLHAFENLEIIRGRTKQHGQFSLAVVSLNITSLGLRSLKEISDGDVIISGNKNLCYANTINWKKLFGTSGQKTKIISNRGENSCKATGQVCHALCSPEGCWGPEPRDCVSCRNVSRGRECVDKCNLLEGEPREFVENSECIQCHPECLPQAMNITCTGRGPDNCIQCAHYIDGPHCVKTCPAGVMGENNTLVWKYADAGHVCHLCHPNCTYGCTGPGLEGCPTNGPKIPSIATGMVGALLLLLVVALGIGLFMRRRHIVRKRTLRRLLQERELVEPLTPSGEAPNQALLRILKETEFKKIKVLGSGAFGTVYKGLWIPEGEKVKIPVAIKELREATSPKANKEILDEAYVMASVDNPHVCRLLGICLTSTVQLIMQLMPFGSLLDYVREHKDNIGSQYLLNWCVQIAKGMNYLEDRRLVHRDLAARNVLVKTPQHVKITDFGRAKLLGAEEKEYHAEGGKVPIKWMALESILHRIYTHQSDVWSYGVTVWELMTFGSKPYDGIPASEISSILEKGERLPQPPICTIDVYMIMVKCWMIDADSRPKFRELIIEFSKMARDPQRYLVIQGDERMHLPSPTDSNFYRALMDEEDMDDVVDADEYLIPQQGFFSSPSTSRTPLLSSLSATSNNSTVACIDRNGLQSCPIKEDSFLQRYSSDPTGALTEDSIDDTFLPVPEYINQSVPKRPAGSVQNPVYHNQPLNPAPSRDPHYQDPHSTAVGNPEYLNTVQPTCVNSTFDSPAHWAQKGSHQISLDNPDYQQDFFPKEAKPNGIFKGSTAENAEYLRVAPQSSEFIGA
EGFR L858R/C797S, sequence (P00533 25-1210 C797S/L858R): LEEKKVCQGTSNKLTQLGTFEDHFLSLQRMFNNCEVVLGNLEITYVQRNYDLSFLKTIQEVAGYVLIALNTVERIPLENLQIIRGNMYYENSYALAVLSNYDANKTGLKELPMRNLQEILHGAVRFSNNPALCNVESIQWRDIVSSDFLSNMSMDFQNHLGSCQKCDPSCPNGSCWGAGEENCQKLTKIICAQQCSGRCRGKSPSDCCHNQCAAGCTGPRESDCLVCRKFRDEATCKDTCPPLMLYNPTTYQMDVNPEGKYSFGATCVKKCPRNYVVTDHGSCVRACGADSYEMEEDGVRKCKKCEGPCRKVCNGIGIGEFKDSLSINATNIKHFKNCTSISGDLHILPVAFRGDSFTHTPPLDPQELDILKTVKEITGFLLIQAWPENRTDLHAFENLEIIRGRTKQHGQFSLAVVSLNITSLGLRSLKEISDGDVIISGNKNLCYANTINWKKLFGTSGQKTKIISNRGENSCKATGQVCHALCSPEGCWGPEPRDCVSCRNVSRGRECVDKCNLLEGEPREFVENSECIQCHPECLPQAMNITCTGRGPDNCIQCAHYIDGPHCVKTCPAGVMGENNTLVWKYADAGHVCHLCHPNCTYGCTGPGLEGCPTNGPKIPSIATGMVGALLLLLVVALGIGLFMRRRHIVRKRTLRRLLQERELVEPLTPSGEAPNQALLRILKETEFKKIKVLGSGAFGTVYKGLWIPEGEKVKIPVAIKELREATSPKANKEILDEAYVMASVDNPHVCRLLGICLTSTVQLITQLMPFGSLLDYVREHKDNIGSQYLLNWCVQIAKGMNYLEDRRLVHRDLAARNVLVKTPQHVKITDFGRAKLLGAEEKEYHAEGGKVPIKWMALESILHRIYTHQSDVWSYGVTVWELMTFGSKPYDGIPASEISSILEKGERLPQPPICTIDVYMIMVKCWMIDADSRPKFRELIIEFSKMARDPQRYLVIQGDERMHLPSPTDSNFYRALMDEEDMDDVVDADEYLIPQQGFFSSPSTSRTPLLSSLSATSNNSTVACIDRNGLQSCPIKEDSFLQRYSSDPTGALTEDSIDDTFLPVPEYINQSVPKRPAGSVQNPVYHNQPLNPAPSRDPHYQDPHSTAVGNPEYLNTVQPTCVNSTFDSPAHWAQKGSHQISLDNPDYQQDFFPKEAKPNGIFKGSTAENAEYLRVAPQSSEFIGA
EGFR Del19/T790M/C797S, sequence (P00533 with tags, fused parts or gaps DEL746-750/T790M/C797S): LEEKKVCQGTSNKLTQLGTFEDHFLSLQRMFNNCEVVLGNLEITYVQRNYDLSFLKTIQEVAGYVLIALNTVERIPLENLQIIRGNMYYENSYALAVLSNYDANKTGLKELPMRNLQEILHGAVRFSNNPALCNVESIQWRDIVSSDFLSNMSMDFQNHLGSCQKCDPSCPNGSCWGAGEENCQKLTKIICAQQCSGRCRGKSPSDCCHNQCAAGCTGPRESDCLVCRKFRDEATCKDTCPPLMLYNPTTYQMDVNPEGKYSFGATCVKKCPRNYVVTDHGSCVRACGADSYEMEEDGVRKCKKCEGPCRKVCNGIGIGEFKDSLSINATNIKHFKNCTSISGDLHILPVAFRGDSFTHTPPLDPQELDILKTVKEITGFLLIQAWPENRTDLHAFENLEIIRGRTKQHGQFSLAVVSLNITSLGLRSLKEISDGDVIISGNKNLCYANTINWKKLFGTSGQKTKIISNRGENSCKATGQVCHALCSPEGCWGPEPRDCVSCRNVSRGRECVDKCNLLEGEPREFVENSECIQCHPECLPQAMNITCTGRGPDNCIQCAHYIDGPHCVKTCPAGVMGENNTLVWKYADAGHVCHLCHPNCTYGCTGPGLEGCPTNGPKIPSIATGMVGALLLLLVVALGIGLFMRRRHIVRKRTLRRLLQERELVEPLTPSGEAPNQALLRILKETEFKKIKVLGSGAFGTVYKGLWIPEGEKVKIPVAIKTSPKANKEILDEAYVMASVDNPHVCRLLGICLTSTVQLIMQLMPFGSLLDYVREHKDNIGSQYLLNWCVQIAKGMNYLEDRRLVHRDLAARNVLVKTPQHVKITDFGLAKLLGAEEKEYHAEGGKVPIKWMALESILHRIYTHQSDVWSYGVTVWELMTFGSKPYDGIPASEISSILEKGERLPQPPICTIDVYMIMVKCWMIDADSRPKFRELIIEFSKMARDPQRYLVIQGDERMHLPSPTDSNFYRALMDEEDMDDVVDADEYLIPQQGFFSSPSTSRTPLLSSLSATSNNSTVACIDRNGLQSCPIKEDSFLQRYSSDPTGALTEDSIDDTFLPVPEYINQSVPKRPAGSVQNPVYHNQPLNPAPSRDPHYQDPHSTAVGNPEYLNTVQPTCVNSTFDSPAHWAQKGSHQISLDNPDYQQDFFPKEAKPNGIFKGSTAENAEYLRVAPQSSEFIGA
EGFR Del19/C797S, sequence (P00533 with tags, fused parts or gaps DEL746-750/C797S): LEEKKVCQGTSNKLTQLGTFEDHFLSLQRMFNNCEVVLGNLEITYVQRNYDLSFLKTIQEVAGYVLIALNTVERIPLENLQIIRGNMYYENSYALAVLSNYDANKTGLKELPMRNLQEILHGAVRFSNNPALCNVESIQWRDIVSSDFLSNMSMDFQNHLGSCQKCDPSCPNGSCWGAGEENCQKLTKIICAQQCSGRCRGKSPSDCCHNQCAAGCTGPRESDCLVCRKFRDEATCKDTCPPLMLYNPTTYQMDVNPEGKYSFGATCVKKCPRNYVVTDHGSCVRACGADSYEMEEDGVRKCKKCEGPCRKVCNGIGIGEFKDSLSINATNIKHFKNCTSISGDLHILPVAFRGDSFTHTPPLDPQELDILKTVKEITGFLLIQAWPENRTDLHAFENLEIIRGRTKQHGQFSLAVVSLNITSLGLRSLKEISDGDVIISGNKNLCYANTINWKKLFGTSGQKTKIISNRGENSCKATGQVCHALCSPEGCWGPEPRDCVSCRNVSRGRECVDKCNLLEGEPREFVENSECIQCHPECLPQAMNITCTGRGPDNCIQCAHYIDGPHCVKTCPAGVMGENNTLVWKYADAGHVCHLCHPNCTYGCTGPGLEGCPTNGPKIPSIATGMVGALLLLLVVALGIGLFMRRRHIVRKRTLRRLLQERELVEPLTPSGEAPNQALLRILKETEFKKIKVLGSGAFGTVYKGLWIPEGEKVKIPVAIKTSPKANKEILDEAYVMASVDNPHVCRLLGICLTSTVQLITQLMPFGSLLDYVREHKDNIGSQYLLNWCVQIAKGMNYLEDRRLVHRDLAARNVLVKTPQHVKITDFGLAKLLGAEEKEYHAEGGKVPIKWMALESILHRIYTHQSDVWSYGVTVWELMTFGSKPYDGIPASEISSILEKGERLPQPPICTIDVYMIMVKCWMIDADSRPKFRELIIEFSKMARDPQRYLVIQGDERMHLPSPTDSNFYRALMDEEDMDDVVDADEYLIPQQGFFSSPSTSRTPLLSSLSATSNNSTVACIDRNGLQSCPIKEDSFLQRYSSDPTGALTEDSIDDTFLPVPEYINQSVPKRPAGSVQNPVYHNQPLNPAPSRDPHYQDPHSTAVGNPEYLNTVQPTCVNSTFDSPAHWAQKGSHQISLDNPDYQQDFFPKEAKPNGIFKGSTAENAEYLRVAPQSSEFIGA

`CC1(CO)CCN(c2cc(Nc3ccnc(-c4cnn(S(=O)(=O)C5CC5)c4)n3)ncc2C#Cc2cn(CC(F)F)c3ccncc23)CC1` [Example 249, (1-(2-((2-(1-(Cyclopropylsulfonyl)-1H-pyrazol-4-yl)pyrimidin-4-yl)amino)-5-((1-(2,2-difluoroethyl)-1H-pyrrolo[3,2-c]pyridin-3-yl)ethynyl)pyridin-4-yl)-4-methylpiperidin-4-yl)methanol]: the IC50 in experiment [1] (setting [6]) stood at 3.1 nM; in experiment [1] (setting [7]), 2.6 nM; in experiment [2] (setting [8]) it was 1.1 nM; in experiment [2] (setting [9]) it was 1.9 nM; in experiment [3] (setting [10]), 6.9 nM; in experiment [3] (setting [11]) it was 7.5 nM. Further, the IC50 in experiment [4] (setting [12]) was 4.7 nM; in experiment [4] (setting [13]), 29.7 nM; in experiment [5] (setting [14]), 23.9 nM; in experiment [5] (IC50 WT (nM), 100 μM ATP), above 10000 nM.
Take `CC1OCCC1C#Cc1cnc(Nc2ccnc(-c3cnn(S(=O)(=O)C4CC4)c3)n2)cc1N1CCC(C)(CO)CC1` (stereo not drawn) [Example 438, (1-(2-((2-(1-(Cyclopropylsulfonyl)-1H-pyrazol-4-yl)pyrimidin-4-yl)amino)-5-((2-methyltetrahydrofuran-3-yl)ethynyl)pyridin-4-yl)-4-methylpiperidin-4-yl)methanol]: the IC50 in experiment [1] (setting [7]) was found to be 0.3 nM; in experiment [1] (setting [15]), 0.3 nM; in experiment [2] (setting [9]) it was 0.7 nM; in experiment [2] (setting [16]), 0.2 nM; in experiment [3] (setting [11]), 3.3 nM; in experiment [3] (setting [17]), 1.7 nM. Further, the IC50 amounted to 85.5 nM in experiment [4] (setting [13]); 1.9 nM in experiment [4] (setting [18]); 6420 nM in experiment [5] (IC50 WT (nM), 100 μM ATP); 5.8 nM in experiment [5] (setting [19]).
On to `O=S(=O)(C1CC1)N1CCC(C#Cc2cnc(Nc3ccnc(-c4cnn(S(=O)(=O)C5CC5)c4)n3)cc2NC[C@H]2CC[C@H](CO)CC2)CC1` [Example 392, ((1r,4r)-4-(((2-((2-(1-(Cyclopropylsulfonyl)-1H-pyrazol-4-yl)pyrimidin-4-yl)amino)-5-((1-(cyclopropylsulfonyl)piperidin-4-yl)ethynyl)pyridin-4-yl)amino)methyl)cyclohexyl)methanol], for which the IC50 in experiment [1] (setting [7]) is 22 nM; in experiment [2] (setting [9]), 60.1 nM; in experiment [3] (setting [11]), 212 nM; in experiment [4] (setting [13]), 4300 nM; in experiment [5] (IC50 WT (nM), 100 μM ATP) it was above 10000 nM.
For `CN(C)Cc1ccc(CNc2cc(Nc3ccnc(-c4cnn(S(=O)(=O)C5CC5)c4)n3)ncc2C#Cc2cnn(CC(F)F)c2)cc1` [Example 52, N^2-(2-(1-(Cyclopropylsulfonyl)-1H-pyrazol-4-yl)pyrimidin-4-yl)-5-((1-(2,2-difluoroethyl)-1H-pyrazol-4-yl)ethynyl)-N^4-(4-((dimethylamino)methyl)benzyl)pyridine-2,4-diamine], the IC50 in experiment [1] (setting [20]) was found to be 1.4 nM; in experiment [2] (setting [21]) it was 3.8 nM; in experiment [3] (setting [22]), 76.9 nM; in experiment [4] (setting [23]), 65.6 nM; in experiment [5] (setting [24]), 304 nM.
`Cn1ncc(C#Cc2cnc(Nc3ccnc(-c4cnn(S(=O)(=O)C5CC5)c4)n3)cc2N2CCC(CCO)CC2)c1C1CC1` [Example 87, 2-(1-(5-((5-Cyclopropyl-1-methyl-1H-pyrazol-4-yl)ethynyl)-2-((2-(1-(cyclopropylsulfonyl)-1H-pyrazol-4-yl)pyrimidin-4-yl)amino)pyridin-4-yl)piperidin-4-yl)ethan-1-ol]: the IC50 in experiment [1] (setting [7]) is 2.3 nM; in experiment [2] (setting [9]), 6.2 nM; in experiment [3] (setting [11]), 26.3 nM; in experiment [4] (setting [13]), 40.5 nM; in experiment [5] (IC50 WT (nM), 100 μM ATP), above 10000 nM.
In the case of `CC(C)(O)[C@H]1CC[C@@H](Nc2cc(Nc3ccnc(-c4cnn(S(=O)(=O)C5CC5)c4)n3)ncc2C#Cc2cnn(CC(F)F)c2)CC1` [Example 325, 2-((1s,4s)-4-((2-((2-(1-(Cyclopropylsulfonyl)-1H-pyrazol-4-yl)pyrimidin-4-yl)amino)-5-((1-(2,2-difluoroethyl)-1H-pyrazol-4-yl)ethynyl)pyridin-4-yl)amino)cyclohexyl)propan-2-ol], the IC50 in experiment [1] (setting [6]) is 0.9 nM; in experiment [1] (setting [7]), 1.1 nM; in experiment [2] (setting [8]) it was 0.8 nM; in experiment [2] (setting [9]), 2.1 nM; in experiment [3] (setting [10]), 6.2 nM; in experiment [3] (setting [11]) it was 6.9 nM. Further, the IC50 in experiment [4] (setting [12]) was 16.3 nM; in experiment [4] (setting [13]) it was 89.8 nM; in experiment [5] (setting [14]), 115 nM; in experiment [5] (IC50 WT (nM), 100 μM ATP), above 10000 nM.
As to `CC1(CO)CCN(c2cc(Nc3ccnc(-c4cnn(S(=O)(=O)C5CC5)c4)n3)ncc2C#Cc2nc(C(F)(F)F)cs2)CC1` [Example 291, (1-(2-((2-(1-(Cyclopropylsulfonyl)-1H-pyrazol-4-yl)pyrimidin-4-yl)amino)-5-((4-(trifluoromethyl)thiazol-2-yl)ethynyl)pyridin-4-yl)-4-methylpiperidin-4-yl)methanol], the IC50 in experiment [1] (setting [6]) was determined as 4.5 nM; in experiment [1] (setting [7]), 7.4 nM; in experiment [2] (setting [8]), 3.6 nM; in experiment [2] (setting [9]) it was 14.9 nM; in experiment [3] (setting [10]) it was 8.9 nM; in experiment [3] (setting [11]), 22.5 nM. For the same compound, the IC50 was 36.7 nM in experiment [4] (setting [12]); 383 nM in experiment [4] (setting [13]); 615 nM in experiment [5] (setting [14]); above 10000 nM in experiment [5] (IC50 WT (nM), 100 μM ATP).
Consider `Cc1nn(S(=O)(=O)N(C)C)cc1-c1nccc(Nc2cc(N3CCC(C)(CO)CC3)c(C#Cc3cnn(C(F)(F)F)c3)cn2)n1` [Example 272, 4-(4-((4-(4-(Hydroxymethyl)-4-methylpiperidin-1-yl)-5-((1-(trifluoromethyl)-1H-pyrazol-4-yl)ethynyl)pyridin-2-yl)amino)pyrimidin-2-yl)-N, N,3-trimethyl-1H-pyrazole-1-sulfonamide], for which the IC50 in experiment [1] (setting [6]) was 4 nM; in experiment [1] (setting [7]), 7.1 nM; in experiment [2] (setting [8]), 2.2 nM; in experiment [2] (setting [9]) it was 3.1 nM; in experiment [3] (setting [10]) it was 51.2 nM; in experiment [3] (setting [11]) it was 81.9 nM. Further, the IC50 in experiment [4] (setting [12]) is 18.9 nM; in experiment [4] (setting [13]), 2120 nM; in experiment [5] (setting [14]), 108 nM; in experiment [5] (IC50 WT (nM), 100 μM ATP) it was above 10000 nM.
`CC1(O)CCN(c2cc(Nc3ccnc(-c4cnn(S(=O)(=O)C5CC5)c4)n3)ncc2C#CC2CCO[C@H]2C(F)(F)F)CC1` (stereo partly drawn) [Example 417, 1-(2-((2-(1-(Cyclopropylsulfonyl)-1H-pyrazol-4-yl)pyrimidin-4-yl)amino)-5-(((2R)-2-(trifluoromethyl)tetrahydrofuran-3-yl)ethynyl)pyridin-4-yl)-4-methylpiperidin-4-ol]: the IC50 in experiment [1] (setting [7]) turned out to be 1.6 nM; in experiment [1] (setting [15]), 1.5 nM; in experiment [2] (setting [9]), 2.6 nM; in experiment [2] (setting [16]) it was 0.8 nM; in experiment [3] (setting [11]), 7.9 nM; in experiment [3] (setting [17]), 7 nM. The IC50 in experiment [4] (setting [13]) was 157 nM; in experiment [4] (setting [18]) it was 30.7 nM; in experiment [5] (IC50 WT (nM), 100 μM ATP), above 10000 nM; in experiment [5] (setting [19]) it was 96.1 nM.
For the compound `Cn1cc(C#Cc2cnc(Nc3ccnc(-c4cnn(S(=O)(=O)C5CC5)c4)n3)cc2N2CCC(NCCF)CC2)cn1` [Example 129, 2-(1-(Cyclopropylsulfonyl)-1H-pyrazol-4-yl)-N-(4-(4-((2-fluoroethyl)amino)piperidin-1-yl)-5-((1-methyl-1H-pyrazol-4-yl)ethynyl)pyridin-2-yl)pyrimidin-4-amine], the IC50 in experiment [1] (setting [7]) was 0.5 nM; in experiment [2] (setting [9]), 0.8 nM; in experiment [3] (setting [11]) it was 4.4 nM; in experiment [4] (setting [13]), 23.8 nM; in experiment [5] (IC50 WT (nM), 100 μM ATP), above 10000 nM.
In the case of `O=S(=O)(C1CC1)n1cc(-c2nccc(Nc3cc(NC4CCC(O)CC4)c(C#Cc4cnn(C5CC5(F)F)c4)cn3)n2)cn1` (stereo not drawn) [Example 85, (1s,4s)-4-((2-((2-(1-(Cyclopropylsulfonyl)-1H-pyrazol-4-yl)pyrimidin-4-yl)amino)-5-((1-(2,2-difluorocyclopropyl)-1H-pyrazol-4-yl)ethynyl)pyridin-4-yl)amino)cyclohexan-1-ol], the IC50 in experiment [1] (setting [7]) was 1.8 nM; in experiment [1] (setting [20]), 1.8 nM; in experiment [2] (setting [9]), 3.5 nM; in experiment [2] (setting [21]), 1 nM; in experiment [3] (setting [11]), 7 nM; in experiment [3] (setting [22]), 3.5 nM. For the same compound, the IC50 was 50.8 nM in experiment [4] (setting [13]); 3.1 nM in experiment [4] (setting [23]); above 10000 nM in experiment [5] (IC50 WT (nM), 100 μM ATP); 114 nM in experiment [5] (setting [24]).
